PubChem BioAssay AID1963979 (Molecular Pharmacology Branch, DTP, NCI, 2024)
Several values for one entry are separate records, joined by “and”; a condition that tells them apart may be missing. Identical values can stand only once.

System: 361931-004-R-J1-PDC multicell spheroid viability
Experiment: Anticancer human tumor 361931-004-R-J1-PDC patient-derived colon adenocarcinoma cell line growth inhibition [PI3K]
Conditions: for viability, T/C: stronger effect = lower value
In short: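 Spheroid viability read-out. Co-cultures contained the tumor line plus HUVEC and human MSCs. Each agent was paired with a PI3K inhibitor (inavolisib, alpelisib, duvelisib, copanlisib) across half-log dilutions starting at clinical Cmax, or at 10 microM when Cmax was unknown.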

[1] = curve of first compound, second compound 0.0316 µM
[2] = curve of first compound, second compound 0.1 µM
[3] = curve of first compound, second compound 0.316 µM
[4] = curve of first compound, second compound 1 µM
[5] = second compound 0.0316 µM, first compound 0.0316 µM
[6] = second compound 0.0316 µM, first compound 0.1 µM
[7] = second compound 0.0316 µM, first compound 0.316 µM
[8] = second compound 0.0316 µM, first compound 1 µM
[9] = second compound 0.0316 µM, first compound 3.16 µM
[10] = second compound 0.0316 µM, first compound 10 µM
[11] = second compound 0.1 µM, first compound 0.0316 µM
[12] = second compound 0.1 µM, first compound 0.1 µM
[13] = second compound 0.1 µM, first compound 0.316 µM
[14] = second compound 0.1 µM, first compound 1 µM
[15] = second compound 0.1 µM, first compound 3.16 µM
[16] = second compound 0.1 µM, first compound 10 µM
[17] = second compound 0.316 µM, first compound 0.0316 µM
[18] = second compound 0.316 µM, first compound 0.1 µM
[19] = second compound 0.316 µM, first compound 0.316 µM
[20] = second compound 0.316 µM, first compound 1 µM
[21] = second compound 0.316 µM, first compound 3.16 µM
[22] = second compound 0.316 µM, first compound 10 µM
[23] = second compound 1 µM, first compound 0.0316 µM
[24] = second compound 1 µM, first compound 0.1 µM
[25] = second compound 1 µM, first compound 0.316 µM
[26] = second compound 1 µM, first compound 1 µM
[27] = second compound 1 µM, first compound 3.16 µM
[28] = second compound 1 µM, first compound 10 µM
[29] = curve of first compound, second compound 0.00316 µM
[30] = curve of first compound, second compound 0.01 µM
[31] = second compound 0.00316 µM, first compound 0.0316 µM
[32] = second compound 0.00316 µM, first compound 0.1 µM
[33] = second compound 0.00316 µM, first compound 0.316 µM
[34] = second compound 0.00316 µM, first compound 1 µM
[35] = second compound 0.00316 µM, first compound 3.16 µM
[36] = second compound 0.00316 µM, first compound 10 µM
[37] = second compound 0.01 µM, first compound 0.0316 µM
[38] = second compound 0.01 µM, first compound 0.1 µM
[39] = second compound 0.01 µM, first compound 0.316 µM
[40] = second compound 0.01 µM, first compound 1 µM
[41] = second compound 0.01 µM, first compound 3.16 µM
[42] = second compound 0.01 µM, first compound 10 µM
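Further: spheroids exposed to agents for seven days before readout.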

`CCCS(=O)(=O)Nc1ccc(F)c(C(=O)c2c[nH]c3ncc(-c4ccc(Cl)cc4)cc23)c1F` + Cc1nc(NC(=O)N2CCCC2C(N)=O)sc1-c1ccnc(C(C)(C)C(F)(F)F)c1 gave an IC50 [1] of 4.92 µM, an IC50 [2] of 5.57 µM and an IC50 [3] of 5.01 µM. The IC50 [4] was 3.5 µM, the IC50 (curve of first compound, second compound 3.16 µM) was 2.09 µM and the IC50 (curve of first compound, second compound 10 µM) was 0.624 µM. The viability, T/C [5] was 96.2%, the viability, T/C [6] was 101% and the viability, T/C [7] was 88.6%. It also gave a viability, T/C [8] of 99.7%, a viability, T/C [9] of 78.4% and a viability, T/C [10] of 4.57%. For the same compound, the viability, T/C [11] was 107%, the viability, T/C [12] was 86.1% and the viability, T/C [13] was 87.2%. For the same compound, the viability, T/C [14] was 91.6%, the viability, T/C [15] was 95.5% and the viability, T/C [16] was 4.97%. For the same compound, the viability, T/C [17] was 94.3%, the viability, T/C [18] was 92.1% and the viability, T/C [19] was 80.7%. It also gave a viability, T/C [20] of 86.9%, a viability, T/C [21] of 80.5% and a viability, T/C [22] of 4.14%. The viability, T/C [23] was 89.2%, the viability, T/C [24] was 88.8% and the viability, T/C [25] was 75.9%. The viability, T/C [26] was 73.3%, the viability, T/C [27] was 57.3% and the viability, T/C [28] was 3.96%. For the same compound, the viability, T/C (second compound 3.16 µM, first compound 0.0316 µM) was 77.1%, the viability, T/C (second compound 3.16 µM, first compound 0.1 µM) was 75.2% and the viability, T/C (second compound 3.16 µM, first compound 0.316 µM) was 60.3%. For the same compound, the viability, T/C (second compound 3.16 µM, first compound 1 µM) was 59.1%, the viability, T/C (second compound 3.16 µM, first compound 3.16 µM) was 48.7% and the viability, T/C (second compound 3.16 µM, first compound 10 µM) was 3.13%. For the same compound, the viability, T/C (second compound 10 µM, first compound 0.0316 µM) was 70.6%, the viability, T/C (second compound 10 µM, first compound 0.1 µM) was 68.6% and the viability, T/C (second compound 10 µM, first compound 0.316 µM) was 54.2%. It also gave a viability, T/C (second compound 10 µM, first compound 1 µM) of 43.5%, a viability, T/C (second compound 10 µM, first compound 3.16 µM) of 30.7% and a viability, T/C (second compound 10 µM, first compound 10 µM) of 1.96%.

Compound `CC1(C)CCC(Nc2ncc(C(F)(F)F)c(-c3c[nH]c4c(P(C)(C)=O)c(C#N)ccc34)n2)CN1` (stereo not given) + CC(Nc1ccc2c(c1)OCCn1cc(N3C(=O)OCC3C(F)F)nc1-2)C(N)=O has an IC50 [29] of 4.25 µM, an IC50 [30] of 4.37 µM and an IC50 [1] of 3.95 µM. The IC50 [2] was 3.55 µM, the IC50 [3] was 3.63 µM and the IC50 [4] was 2.06 µM. It also gave a viability, T/C [31] of 72.1%, a viability, T/C [32] of 78.7% and a viability, T/C [33] of 76.4%. The viability, T/C [34] was 72.6%, the viability, T/C [35] was 66.1% and the viability, T/C [36] was 3.82%. It also gave a viability, T/C [37] of 84.2%, a viability, T/C [38] of 79.8% and a viability, T/C [39] of 75%. For the same compound, the viability, T/C [40] was 77.9%, the viability, T/C [41] was 67.8% and the viability, T/C [42] was 4.66%. For the same compound, the viability, T/C [5] was 78.7%, the viability, T/C [6] was 69.8% and the viability, T/C [7] was 70.8%. For the same compound, the viability, T/C [8] was 67.1%, the viability, T/C [9] was 62.2% and the viability, T/C [10] was 3.26%. For the same compound, the viability, T/C [11] was 84.2%, the viability, T/C [12] was 72.3% and the viability, T/C [13] was 64.9%. For the same compound, the viability, T/C [14] was 69.5%, the viability, T/C [15] was 57% and the viability, T/C [16] was 3.49%. For the same compound, the viability, T/C [17] was 66.6%, the viability, T/C [18] was 64.2% and the viability, T/C [19] was 61.1%. For the same compound, the viability, T/C [20] was 68.4%, the viability, T/C [21] was 55.5% and the viability, T/C [22] was 3.54%. For the same compound, the viability, T/C [23] was 64.5%, the viability, T/C [24] was 52.5% and the viability, T/C [25] was 56.4%. For the same compound, the viability, T/C [26] was 56.7%, the viability, T/C [27] was 46.2% and the viability, T/C [28] was 3.28%.

With `Cn1ncc(Cl)c1-c1cc(C(=O)NC(CN)Cc2cccc(F)c2)sc1Cl` (stereo not given) + CC(Nc1ccc2c(c1)OCCn1cc(N3C(=O)OCC3C(F)F)nc1-2)C(N)=O the IC50 [29] was 1.09 µM, the IC50 [30] was 0.9 µM and the IC50 [1] was 0.695 µM. The IC50 [2] was 0.73 µM, the IC50 [3] was 0.965 µM and the IC50 [4] was 0.654 µM. The viability, T/C [31] was 92.5%, the viability, T/C [32] was 91.9% and the viability, T/C [33] was 76.6%. For the same compound, the viability, T/C [34] was 50.9%, the viability, T/C [35] was 32.2% and the viability, T/C [36] was 22.6%. It also gave a viability, T/C [37] of 99%, a viability, T/C [38] of 94.5% and a viability, T/C [39] of 68.7%. For the same compound, the viability, T/C [40] was 48.4%, the viability, T/C [41] was 29% and the viability, T/C [42] was 15.4%. The viability, T/C [5] was 103%, the viability, T/C [6] was 110% and the viability, T/C [7] was 75.2%. The viability, T/C [8] was 37.3%, the viability, T/C [9] was 25.8% and the viability, T/C [10] was 12.8%. The viability, T/C [11] was 85%, the viability, T/C [12] was 87.7% and the viability, T/C [13] was 67%. It also gave a viability, T/C [14] of 41.6%, a viability, T/C [15] of 26.1% and a viability, T/C [16] of 12.8%. The viability, T/C [17] was 90.1%, the viability, T/C [18] was 77.9% and the viability, T/C [19] was 68.8%. It also gave a viability, T/C [20] of 54.2%, a viability, T/C [21] of 22.4% and a viability, T/C [22] of 14.6%. It also gave a viability, T/C [23] of 82.6%, a viability, T/C [24] of 79.4% and a viability, T/C [25] of 59.5%. It also gave a viability, T/C [26] of 45.1%, a viability, T/C [27] of 24% and a viability, T/C [28] of 16.1%.

For `C[C@@H](NC(=O)c1ncnc(N)c1Cl)c1ncc(C(=O)Nc2cc(C(F)(F)F)c(Cl)cn2)s1`, the viability, T/C (compound 0.0316 µM) was 106% [middle of 4 runs], the viability, T/C (compound 0.1 µM) was 103% and 104% (2×) and 115% and the viability, T/C (compound 0.316 µM) was 107% [middle of 4 runs]. For the same compound, the viability, T/C (compound 1 µM) was 99.6% [middle of 4 runs], the viability, T/C (compound 3.16 µM) was 99.3% [middle of 4 runs] and the viability, T/C (compound 10 µM) was 100% [middle of 4 runs]. For the same compound, the IC50 (curve of compound) was > 10 µM.

For `CCCS(=O)(=O)Nc1ccc(F)c(C(=O)c2c[nH]c3ncc(-c4ccc(Cl)cc4)cc23)c1F`, the viability, T/C (compound 0.0316 µM) was 103% (2×) and 94% and 108%, the viability, T/C (compound 0.1 µM) was 103% and 101% (2×) and 98.4% and the viability, T/C (compound 0.316 µM) was 97.1% [middle of 4 runs]. For the same compound, the viability, T/C (compound 1 µM) was 92.3% [middle of 4 runs], the viability, T/C (compound 3.16 µM) was 82% [middle of 4 runs] and the viability, T/C (compound 10 µM) was 8.31% [middle of 4 runs]. For the same compound, the IC50 (curve of compound) was 5.1 µM [middle of 4 runs].
